Measured values from PMC9866191, “Novel 9-Benzylaminoacridine Derivatives as Dual Inhibitors of Phosphodiesterase 5 and Topoisomerase II for the Treatment of Colon Cancer” (Molecules, 2023).

Legend:
PDE5A = molecular target: T1, PDE5A (Homo sapiens, UniProt O76074); experiment: Phosphodiesterase 5 HTRF cGMP assay; type: biochemical
T1 construct: purchased BPS Bioscience, San Diego, CA, USA
Experimental: All the synthesized acridine derivatives were tested for their in vitro ability to inhibit PDE5A at a screening dose of 10 µM.
The enzyme activities of phosphodiesterase 5 (PDE5) were measured using an HTRF cGMP assay kit (Cisbio, Codolet, France). […] Afterward, the HTRF reagent (cGMP-d2 and anti-cGMP-cryptate) was added for 1 h at 25 °C, and PDE activity was assayed on an HTRF reader (Tecan Infinite F200 Pro).

CCRF-CEM = experiment: NCI-60 one-dose screen; type: cell-based; settings: Homo sapiens, Leukemia panel, single dose 10^−5 M, read-out: Growth inhibition %
ACHN = experiment: NCI-60 one-dose screen; type: cell-based; settings: Homo sapiens, Renal Cancer panel, single dose 10^−5 M, read-out: Growth inhibition %
Experimental: (§1) The newly synthesized compounds were screened for their in vitro anticancer activity at the Developmental Therapeutic Program (DTP) of the National Cancer Institute (NCI). The screening involved a panel of 60 human tumor cell lines consisting of 9 tissue types to screen for potential anti-cancer agents. The primary screening of submitted compounds was performed by testing a single dose (10^−5 M) in the full NCI-60 panel. The detailed % inhibition by the tested compounds against the 60 cell lines is shown in Tables S1–S3 in the Supporting Information.

CAKI-1 = experiment: NCI-60 one-dose screen; type: cell-based; settings: Homo sapiens; CAKI-1, Renal Cancer panel; single dose 10^−5 M; read-out: Growth inhibition %
Experimental: as §1

COLO 205 = experiment: NCI-60 one-dose screen; type: cell-based; settings: Homo sapiens; COLO 205, Colon Cancer panel; single dose 10^−5 M; read-out: Growth inhibition %
Experimental: as §1

HCC-2998 = experiment: NCI-60 one-dose screen; type: cell-based; settings: Homo sapiens; HCC-2998, Colon Cancer panel; single dose 10^−5 M; read-out: Growth inhibition %
Experimental: as §1

HCT-15 = experiment: NCI-60 one-dose screen; type: cell-based; settings: Homo sapiens; HCT-15, Colon Cancer panel; single dose 10^−5 M; read-out: Growth inhibition %
Experimental: as §1

K-562 = experiment: NCI-60 one-dose screen; type: cell-based; settings: Homo sapiens, K562; K-562, Leukemia panel; single dose 10^−5 M; read-out: Growth inhibition %
Experimental: as §1

KM12 = experiment: NCI-60 one-dose screen; type: cell-based; settings: Homo sapiens; KM12, Colon Cancer panel; single dose 10^−5 M; read-out: Growth inhibition %
Experimental: as §1

M14 = experiment: NCI-60 one-dose screen; type: cell-based; settings: Homo sapiens; M14, Melanoma panel; single dose 10^−5 M; read-out: Growth inhibition %
Experimental: as §1

MDA-MB-435 = experiment: NCI-60 one-dose screen; type: cell-based; settings: Homo sapiens; MDA-MB-435, Melanoma panel; single dose 10^−5 M; read-out: Growth inhibition %
Experimental: as §1

NCI-H522 = experiment: NCI-60 one-dose screen; type: cell-based; settings: Homo sapiens; NCI-H522, Non-small cell lung panel; single dose 10^−5 M; read-out: Growth inhibition %
Experimental: as §1

NCI/ADR-RES = experiment: NCI-60 one-dose screen; type: cell-based; settings: Homo sapiens, Ovarian Cancer panel, single dose 10^−5 M, read-out: Growth inhibition %
Experimental: as §1

OVCAR-3 = experiment: NCI-60 one-dose screen; type: cell-based; settings: Homo sapiens; OVCAR-3, Ovarian Cancer panel; single dose 10^−5 M; read-out: Growth inhibition %
Experimental: as §1

SF-295 = experiment: NCI-60 one-dose screen; type: cell-based; settings: Homo sapiens; SF-295, CNS Cancer panel; single dose 10^−5 M; read-out: Growth inhibition %
Experimental: as §1

SK-MEL-28 = experiment: NCI-60 one-dose screen; type: cell-based; settings: Homo sapiens; SK-MEL-28, Melanoma panel; single dose 10^−5 M; read-out: Growth inhibition %
Experimental: as §1

SK-MEL-2 = experiment: NCI-60 one-dose screen; type: cell-based; settings: Homo sapiens; SK-MEL-2, Melanoma panel; single dose 10^−5 M; read-out: Growth inhibition %
Experimental: as §1

SK-MEL-5 = experiment: NCI-60 one-dose screen; type: cell-based; settings: Homo sapiens; SK-MEL-5, Melanoma panel; single dose 10^−5 M; read-out: Growth inhibition %
Experimental: as §1

SK-OV-3 = experiment: NCI-60 one-dose screen; type: cell-based; settings: Homo sapiens; SK-OV-3, Ovarian Cancer panel; single dose 10^−5 M; read-out: Growth inhibition %
Experimental: as §1

SN12C = experiment: NCI-60 one-dose screen; type: cell-based; settings: Homo sapiens, Renal Cancer panel, single dose 10^−5 M, read-out: Growth inhibition %
Experimental: as §1

SNB-75 = experiment: NCI-60 one-dose screen; type: cell-based; settings: Homo sapiens; SNB-75, CNS Cancer panel; single dose 10^−5 M; read-out: Growth inhibition %
Experimental: as §1

SR = experiment: NCI-60 one-dose screen; type: cell-based; settings: Homo sapiens, Leukemia panel, single dose 10^−5 M, read-out: Growth inhibition %
Experimental: as §1

SW-620 = experiment: NCI-60 one-dose screen; type: cell-based; settings: Homo sapiens; SW-620, Colon Cancer panel; single dose 10^−5 M; read-out: Growth inhibition %
Experimental: as §1

T-47D = experiment: NCI-60 one-dose screen; type: cell-based; settings: Homo sapiens, T47D, Breast Cancer panel, single dose 10^−5 M, read-out: Growth inhibition %
Experimental: as §1

U251 = experiment: NCI-60 one-dose screen; type: cell-based; settings: Homo sapiens, U-251; U251, CNS Cancer panel; single dose 10^−5 M; read-out: Growth inhibition %
Experimental: as §1

UACC-257 = experiment: NCI-60 one-dose screen; type: cell-based; settings: Homo sapiens; UACC-257, Melanoma panel; single dose 10^−5 M; read-out: Growth inhibition %
Experimental: as §1

SF-268 = experiment: NCI-60 one-dose screen; type: cell-based; settings: Homo sapiens; SF-268, CNS Cancer panel; single dose 10^−5 M; read-out: Growth inhibition %
LOX IMVI = experiment: NCI-60 one-dose screen; type: cell-based; settings: Homo sapiens, Melanoma panel, single dose 10^−5 M, read-out: Growth inhibition %
IGROV1 = experiment: NCI-60 one-dose screen; type: cell-based; settings: Homo sapiens, IGROV-1; IGROV1, Ovarian Cancer panel; single dose 10^−5 M; read-out: Growth inhibition %

## c1coc(CNc2c3ccccc3nc3ccccc23)c1 [Compound 14, Acridin-9-yl-furan-2-ylmethyl-amine]
PDE5A; means ± S.D. (n = 4), read-out: PDE5 IC50
  IC50: 7.43 ± 2.69 µM
PDE5A; read-out: PDE5 % Inhibition at 10 μM
  inhibition at 10 µM: 56.5 ± 7.38%
CCRF-CEM
  inhibition at 10 µM: 42.9%
ACHN
  inhibition at 10 µM: 73.8%
CAKI-1
  inhibition at 10 µM: 59%
COLO 205
  inhibition at 10 µM: 64.8%
HCC-2998
  inhibition at 10 µM: 31.1%
HCT-15
  inhibition at 10 µM: 55.8%
K-562
  inhibition at 10 µM: 55.3%
KM12
  inhibition at 10 µM: 14.5%
M14
  inhibition at 10 µM: 20.3%
MDA-MB-435
  inhibition at 10 µM: 12.4%
NCI-H522
  inhibition at 10 µM: 52.7%
NCI/ADR-RES
  inhibition at 10 µM: 55.2%
OVCAR-3
  inhibition at 10 µM: 3.11%
SF-295
  inhibition at 10 µM: 46.1%
SK-MEL-28
  inhibition at 10 µM: 2.28%
SK-MEL-2
  inhibition at 10 µM: -1.22%
SK-MEL-5
  inhibition at 10 µM: 15.7%
SK-OV-3
  inhibition at 10 µM: 29.1%
SN12C
  inhibition at 10 µM: 46.5%
SNB-75
  inhibition at 10 µM: 18.5%
SR
  inhibition at 10 µM: 66%
SW-620
  inhibition at 10 µM: 57.7%
T-47D
  inhibition at 10 µM: 30.7%
U251
  inhibition at 10 µM: 34.9%
UACC-257
  inhibition at 10 µM: 18.3%
SF-268
  inhibition at 10 µM: 14.3%
LOX IMVI
  inhibition at 10 µM: 62.9%
IGROV1
  inhibition at 10 µM: 38.1%
